Read-outs that look alike come from different tables or passages of the source.
Assays:
VCaP cells [1] = test system: VCaP cells
Androgen receptor (AR) = target: T1, Androgen receptor (AR) (Homo sapiens, UniProt P10275, T878A); assay: Assessment of AR proteolytic activity (Western blotting of LNCap cell lysates); format: cell-based; conditions: 24 hours of treatment, Western blotting quantified with Image J
T1 construct: 5.5×10^5 LNCap cells were injected into each well of a 6-well plate; endogenous in cells; host or cells: LNCaP
T1 sequence (P10275 1-920 T878A): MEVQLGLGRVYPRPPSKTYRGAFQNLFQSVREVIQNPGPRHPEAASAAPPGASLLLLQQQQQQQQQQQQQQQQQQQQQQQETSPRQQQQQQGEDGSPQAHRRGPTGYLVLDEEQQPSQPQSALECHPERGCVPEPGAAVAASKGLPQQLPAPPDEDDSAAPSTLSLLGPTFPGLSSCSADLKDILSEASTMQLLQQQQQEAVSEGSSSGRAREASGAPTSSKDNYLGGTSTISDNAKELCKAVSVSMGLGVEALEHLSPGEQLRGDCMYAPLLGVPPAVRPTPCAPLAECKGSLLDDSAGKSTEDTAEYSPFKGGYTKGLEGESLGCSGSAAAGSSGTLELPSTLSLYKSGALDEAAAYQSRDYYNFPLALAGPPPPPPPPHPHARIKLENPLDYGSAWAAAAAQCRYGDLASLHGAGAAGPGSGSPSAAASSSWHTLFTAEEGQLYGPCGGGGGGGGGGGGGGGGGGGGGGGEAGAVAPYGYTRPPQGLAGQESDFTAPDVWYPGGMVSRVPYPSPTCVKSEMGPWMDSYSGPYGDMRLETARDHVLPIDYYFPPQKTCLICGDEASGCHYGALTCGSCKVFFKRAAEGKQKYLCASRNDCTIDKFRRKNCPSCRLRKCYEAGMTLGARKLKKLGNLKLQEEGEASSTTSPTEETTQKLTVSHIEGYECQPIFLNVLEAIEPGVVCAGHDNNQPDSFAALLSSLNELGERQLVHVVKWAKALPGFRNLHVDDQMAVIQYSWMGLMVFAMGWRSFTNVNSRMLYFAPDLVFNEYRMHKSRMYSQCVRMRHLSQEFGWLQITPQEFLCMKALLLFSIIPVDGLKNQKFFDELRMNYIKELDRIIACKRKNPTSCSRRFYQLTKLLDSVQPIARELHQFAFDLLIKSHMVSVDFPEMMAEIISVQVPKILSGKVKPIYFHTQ
Summary of the method: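 AR degradation read by Western blot densitometry on RIPA lysates (pH 7.5, protease inhibitor cocktail). Lysates came from LNCap cells, 5.5×10^5 per well, exposed to compound for 24 hours.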

VCaP cells [2] = assay: Cytotoxicity assessment (Cell-titer-glo cell viability), VCaP
[3] = read-out: VCaP (CC50), VCaP cells, 6 days of treatment, Cell-titer-glo, vs DMSO

Row | Structure (SMILES) | CC50 (VCaP cells [1]) [nM] | Degradation (1 μM treated in LNCaP, % AR remaining) (Androgen receptor (AR)) [%] | CC50 (VCaP cells [2]; [3]) [µM] | CC50 (VCaP cells [2]; Homo sapiens, VCaP, 144 h, read-out: VCaP (CC50, μM)) [µM] | remaining activity at 1 µM (Androgen receptor (AR); read-out: Degradation (1 μM treated in LNCaP, % AR remaining)) [%]
1 | CC1(C)C(NC(=O)c2ccc(N3CCN(CCCOC4CCN(C(=O)C5CN(c6ccc7nnn(C8CCC(=O)NC8=O)c(=O)c7c6)C5)CC4)CC3)cc2)C(C)(C)C1Oc1ccc(C#N)c(Cl)c1 (centres unmarked) [Example 36, N-((1r,3r)-3-(3-chloro-4-cyanophenoxy)-2,2,4,4-tetramethylcyclobutyl)-4-(4-(3-((1-(1-(3-(2,6-dioxopiperidin-3-yl)-4-oxo-3,4-dihydrobenzo[d][1,2,3]triazin-6-yl)azetidine-3-carbonyl)piperidin-4-yl)oxy)propyl)piperazin-1-yl)benzamide] | 36.5 | 9.8 |  |  | 
2 | CC1(C)C(NC(=O)c2ccc(N3CCN(CC4CCN(CCNC(=O)COc5ccc6nnn(C7CCC(=O)NC7=O)c(=O)c6c5)CC4)CC3)cc2)C(C)(C)C1Oc1ccc(C#N)c(Cl)c1 (centres unmarked) [Example 60, N-((1r,3r)-3-(3-chloro-4-cyanophenoxy)-2,2,4,4-tetramethylcyclobutyl)-4-(4-((1-(2-(2-((3-(2,6-dioxopiperidin-3-yl)-4-oxo-3,4-dihydrobenzo[d][1,2,3]triazin-6-yl)oxy)acetamido)ethyl)piperidin-4-yl)methyl)piperazin-1-yl)benzamide] | 3280 | 20.3 |  |  | 
3 | CC1(C)C(NC(=O)c2ccc(N3CCN(CC4CCN(C(=O)CN5CCN(c6ccc7nnn(C8CCC(=O)NC8=O)c(=O)c7c6)CC5)CC4)CC3)cc2)C(C)(C)C1Oc1ccc(C#N)c(Cl)c1 (centres unmarked) [Example 58, N-((1r,3r)-3-(3-chloro-4-cyanophenoxy)-2,2,4,4-tetramethylcyclobutyl)-4-(4-((1-(2-(4-(3-(2,6-dioxopiperidin-3-yl)-4-oxo-3,4-dihydrobenzo[d][1,2,3]triazin-6-yl)piperazin-1-yl)acetyl)piperidin-4-yl)methyl)piperazin-1-yl)benzamide] | 330 | 11.4 |  |  | 
4 | CC1(C)C(NC(=O)c2ccc(-c3cnn(C4CCN(CC5CCN(c6ccc7nnn(C8CCC(=O)NC8=O)c(=O)c7c6)CC5)CC4)c3)cc2)C(C)(C)C1Oc1ccc(C#N)c(Cl)c1 (centres unmarked) [Example 84, N-((1r,3r)-3-(3-chloro-4-cyanophenoxy)-2,2,4,4-tetramethylcyclobutyl)-4-(1-(1-((1-(3-(2,6-dioxopiperidin-3-yl)-4-oxo-3,4-dihydrobenzo[d][1,2,3]triazin-6-yl)piperidin-4-yl)methyl)piperidin-4-yl)-1H-pyrazol-4-yl)benzamide] | 15.4 | 18 |  |  | 
5 | CC1(C)C(NC(=O)c2ccc(N3CCN(CCCC4CCN(C(=O)COc5ccc6nnn(C7CCC(=O)NC7=O)c(=O)c6c5)CC4)CC3)cc2)C(C)(C)C1Oc1ccc(C#N)c(Cl)c1 (centres unmarked) [Example 45, N-((1r,3r)-3-(3-chloro-4-cyanophenoxy)-2,2,4,4-tetramethylcyclobutyl)-4-(4-(3-(1-(2-((3-(2,6-dioxopiperidin-3-yl)-4-oxo-3,4-dihydrobenzo[d][1,2,3]triazin-6-yl)oxy)acetyl)piperidin-4-yl)propyl)piperazin-1-yl)benzamide] | 46.6 | 21.1 |  |  | 
6 | CC1(C)C(NC(=O)c2ccc(N3CCN(CC4CCN(C(=O)C5CCN(c6ccc7nnn(C8CCC(=O)NC8=O)c(=O)c7c6)CC5)CC4)CC3)nc2)C(C)(C)C1Oc1ccc(C#N)c(Cl)c1 (centres unmarked) [Example 81, N-((1r,3r)-3-(3-chloro-4-cyanophenoxy)-2,2,4,4-tetramethylcyclobutyl)-6-(4-((1-(1-(3-(2,6-dioxopiperidin-3-yl)-4-oxo-3,4-dihydrobenzo[d][1,2,3]triazin-6-yl)piperidine-4-carbonyl)piperidin-4-yl)methyl)piperazin-1-yl)nicotinamide] |  | 18 | 0.0238 |  | 
7 | CC1(C)[C@H](NC(=O)c2ccc(C3CCN(CC4CCN(C(=O)C5CCN(c6ccc7nnn(C8CCC(=O)NC8=O)c(=O)c7c6)CC5)CC4)CC3)cc2)C(C)(C)[C@H]1Oc1ccc(C#N)c(Cl)c1 (some centres unmarked) [Example 51, N-((1r,3r)-3-(3-chloro-4-cyanophenoxy)-2,2,4,4-tetramethylcyclobutyl)-4-(1-((1-(1-(3-(2,6-dioxopiperidin-3-yl)-4-oxo-3,4-dihydrobenzo[d][1,2,3]triazin-6-yl)piperidine-4-carbonyl)piperidin-4-yl)methyl)piperidin-4-yl)benzamide] |  | 10.4 | 0.228 |  | 
8 | CC1(C)C(NC(=O)c2ccc(N3CCN(CC4CCN(CCNC(=O)C5CCN(c6ccc7nnn(C8CCC(=O)NC8=O)c(=O)c7c6)CC5)CC4)CC3)cc2)C(C)(C)C1Oc1ccc(C#N)c(Cl)c1 (centres unmarked) [Example 68, N-(2-(4-((4-(4-(((1r,3r)-3-(3-chloro-4-cyanophenoxy)-2,2,4,4-tetramethylcyclobutyl)carbamoyl)phenyl)piperazin-1-yl)methyl)piperidin-1-yl)ethyl)-1-(3-(2,6-dioxopiperidin-3-yl)-4-oxo-3,4-dihydrobenzo[d][1,2,3]triazin-6-yl)piperidine-4-carboxamide] |  | 26 | 0.162 |  | 
9 | CC1(C)[C@H](NC(=O)c2ccc(N3CCN(C(=O)CNc4ccc5nnn(C6CCC(=O)NC6=O)c(=O)c5c4)CC3)cc2)C(C)(C)[C@H]1Oc1ccc(C#N)c(Cl)c1 (some centres unmarked) [Example 40, N-((1r,3r)-3-(3-chloro-4-cyanophenoxy)-2,2,4,4-tetramethylcyclobutyl)-4-(4-((3-(2,6-dioxopiperidin-3-yl)-4-oxo-3,4-dihydrobenzo[d][1,2,3]triazin-6-yl)glycyl)piperazin-1-yl)benzamide] |  | 19.7 | 0.0243 |  | 
10 | CC1(C)[C@H](NC(=O)c2ccc(C#CCC3CCN(C(=O)C4CCN(c5ccc6nnn(C7CCC(=O)NC7=O)c(=O)c6c5)CC4)CC3)cc2)C(C)(C)[C@H]1Oc1ccc(C#N)c(Cl)c1 (some centres unmarked) [Example 86, N-((1r,3r)-3-(3-chloro-4-cyanophenoxy)-2,2,4,4-tetramethylcyclobutyl)-4-(3-(1-(1-(3-(2,6-dioxopiperidin-3-yl)-4-oxo-3,4-dihydrobenzo[d][1,2,3]triazin-6-yl)piperidine-4-carbonyl)piperidin-4-yl)prop-1-yn-1-yl)benzamide] |  | 20 | 0.0349 |  | 
11 | CC1(C)[C@H](NC(=O)c2ccc(C3CCN(CCOC4CCN(C(=O)C5CCN(c6ccc7nnn(C8CCC(=O)NC8=O)c(=O)c7c6)CC5)CC4)CC3)cc2)C(C)(C)[C@H]1Oc1ccc(C#N)c(Cl)c1 (some centres unmarked) [Example 74, N-((1r,3r)-3-(3-chloro-4-cyanophenoxy)-2,2,4,4-tetramethylcyclobutyl)-4-(1-(2-((1-(1-(3-(2,6-dioxopiperidin-3-yl)-4-oxo-3,4-dihydrobenzo[d][1,2,3]triazin-6-yl)piperidine-4-carbonyl)piperidin-4-yl)oxy)ethyl)piperidin-4-yl)benzamide] |  | 20 | 0.0732 |  | 
12 | CC1(C)[C@H](NC(=O)c2ccc(N3CCN(C(=O)C4CCN(c5ccc6nnn(C7CCC(=O)NC7=O)c(=O)c6c5)CC4)CC3)cc2)C(C)(C)[C@H]1Oc1ccc(C#N)c(Cl)c1 (some centres unmarked) [Example 42, N-((1r,3r)-3-(3-chloro-4-cyanophenoxy)-2,2,4,4-tetramethylcyclobutyl)-4-(4-(1-(3-(2,6-dioxopiperidin-3-yl)-4-oxo-3,4-dihydrobenzo[d][1,2,3]triazin-6-yl)piperidine-4-carbonyl)piperazin-1-yl)benzamide] |  | 10 | 0.0494 |  | 
13 | CC1(C)[C@H](NC(=O)c2ccc(N3CCN(CC4(F)CCN(c5ccc6nnn(C7CCC(=O)NC7=O)c(=O)c6c5)CC4)CC3)cc2)C(C)(C)[C@H]1Oc1ccc(C#N)c(Cl)c1 (some centres unmarked) [Example 61, N-((1r,3r)-3-(3-chloro-4-cyanophenoxy)-2,2,4,4-tetramethylcyclobutyl)-4-(4-((1-(3-(2,6-dioxopiperidin-3-yl)-4-oxo-3,4-dihydrobenzo[d][1,2,3]triazin-6-yl)-4-fluoropiperidin-4-yl)methyl)piperazin-1-yl)benzamide] |  |  |  | 0.29 | 25

From patent US20240018123A1, “COMPOUND FOR INHIBITING OR DISINTEGRATING ANDROGEN RECEPTOR, AND PHARMACEUTICAL USE THEREOF” (KOREA RESEARCH INSTITUTE OF CHEMICAL TECHNOLOGY, priority 2020, published 2024)
